Molecules are shown by their SMILES. Where a name gives a salt, the structure may show the parent alone.

The test has as its system bacterial strains that express the class D cephalosporinase OXA-15. Description: Standard BLI potentiation MIC / synergy MIC assays, strains expressing OXA-15. Format: cell-based, E. coli. Particulars: in combination with a β-lactam; comparator Avibactam (CCC). The method, then: The experimental protocol was performed according to Clinical and Laboratory Standards Institute (CLSI) guidelines with modifications as described below (CLSI guidelines can be derived from the CLSI document M07-A9 published in January 2012: “Methods for Dilution Antimicrobial Susceptibility Tests for Bacteria That Grow Aerobically; Approved Standard-Ninth Edition”).
To prepare for MIC testing, frozen glycerol stocks of clinical isolates (Klebsiella pneumoniae, Eschericia coli, Enterobacter spp, Citrobacter spp, or Pseudomonas aeruginosa) were used to streak for isolated colonies on rich, non-selective, tryptic soy agar containing 5% sheep's blood (TSAB). Frozen glycerol stocks of laboratory engineered, isogenic E. coli strains, which contain cloned β-lactamase expressing plasmids were used to streak for isolated colonies on rich, selective LB agar supplemented with 25 μg/mL tetracycline to maintain the plasmid. All strains were incubated at 37° C. for 18-24 hrs.
On the day of testing, primary cultures were started by scraping off 5-10 colonies from the TSAB plates containing clinical strains or the tetracycline supplemented LB plates containing engineered strains. The clinical strain material was suspended in ˜5 mL of cation adjusted Mueller Hinton Broth (CAMHB) in 14 mL culture tubes. The engineered strain material was suspended in CAMHB (supplemented with 25 μg/mL tetracycline) in 14 mL culture tubes. All strains were incubated at 37° C. with aeration (200 rpm) for ˜2 hrs until the optical density at 600 nm (OD600) was >0.1.
The two compound components of the assay were each diluted in CAMHB and added to the 96-well broth microdilution assay plates. 50 μL of the β-lactam was added to each well of the assay plate in 2-fold dilutions with final concentrations ranging from 128 to 0.13 μg/mL. 25 μL of the BLI compound was added to all wells in the broth microdilution plates at a final concentration of 4 μg/mL. Inoculum cultures were prepared by standardizing the primary cultures to OD600=0.1 and then adding 20 μL of the adjusted primary culture per 1 mL CAMHB for clinical strains or CAMHB (supplemented with tetracycline at 100 μg/mL) for engineered strains, so that the final inoculum density was ˜10^5 colony forming units per milliliter. Diluted inoculum cultures were used to inoculate 25 μl, per well in 96-well broth microdilution assay plates. The final volume of each well was 100 μL and contained a β-lactam at different concentrations, a BLlcompound at 4 μg/mL concentration, the bacterial culture at an OD600 of approximately 0.001 and when necessary tetracycline at 25 μg/mL.
Plates were incubated for 18-20 hours at 37° C. with aeration (200 rpm). Following incubation, growth was confirmed visually placing plates over a viewing apparatus (stand with a mirror underneath) and then OD600 was measured using a SpectraMax 340PC384 plate reader (Molecular Devices, Sunnyvale, Calif.). Growth was defined as turbidity that could be detected with the naked eye or achieving minimum OD600 of 0.1. MIC values were defined as the lowest concentration producing no visible turbidity.
The synergy MIC (sMIC) assay determines the concentration of the BLI required to potentiate the activity of a fixed concentration of a β-lactam antibiotic against β-lactamase producing bacterial strains. The experimental protocol was performed according to Clinical and Laboratory Standards Institute (CLSI) guidelines with modifications as described below (CLSI guidelines can be derived from the CLSI document M07-A9 published in January 2012: “Methods for Dilution Antimicrobial Susceptibility Tests for Bacteria That Grow Aerobically; Approved Standard-Ninth Edition”). […]
Regarding `N=C(N)NCc1nnc([C@@H]2CC[C@@H]3CN2C(=O)N3OS(=O)(=O)O)o1` [Compound 704, (2S,5R)-2-(5-(guanidinomethyl)-1,3,4-oxadiazol-2-yl)-7-oxo-1,6-diazabicyclo[3.2.1]octan-6-yl hydrogen sulfate], the “activity against bacterial strains that express the class D cephalosporinase OXA-15, compared with Avibactam” value (shortened to “activity … compared with Avibactam”) is “more active than Avibactam”.
Regarding `Nc1nnc([C@@H]2CC[C@@H]3CN2C(=O)N3OS(=O)(=O)O)o1` [Compound 707, (2S,5R)-2-(5-amino-1,3,4-oxadiazol-2-yl)-7-oxo-1,6-diazabicyclo[3.2.1]octan-6-yl hydrogen sulfate], the “activity … compared with Avibactam” value is “more active than Avibactam”.
The result for `N=C(N)N1CCC(c2nnc([C@@H]3CC[C@@H]4CN3C(=O)N4OS(=O)(=O)O)o2)CC1` [Compound 712, (2S,5R)-2-(5-(1-carbamimidoylpiperidin-4-yl)-1,3,4-oxadiazol-2-yl)-7-oxo-1,6-diazabicyclo[3.2.1]octan-6-yl hydrogen sulfate] reads “more active than Avibactam”; that for `O=C1N2C[C@@H](CC[C@H]2c2nnc(N3CCNCC3)o2)N1OS(=O)(=O)O` [Compound 713, (2S,5R)-7-oxo-2-(5-(piperazin-1-yl)-1,3,4-oxadiazol-2-yl)-1,6-diazabicyclo[3.2.1]octan-6-yl hydrogen sulfate], “more active than Avibactam”.
Turning to `N=C(N)NCCCc1nnc([C@@H]2CC[C@@H]3CN2C(=O)N3OS(=O)(=O)O)o1` [Compound 714, (2S,5R)-2-(5-(3-guanidinopropyl)-1,3,4-oxadiazol-2-yl)-7-oxo-1,6-diazabicyclo[3.2.1]octan-6-yl hydrogen sulfate], the “activity … compared with Avibactam” value is on record as “more active than Avibactam”.
With `NCC(O)c1nnc([C@@H]2CC[C@@H]3CN2C(=O)N3OS(=O)(=O)O)o1` (stereo partly drawn) [Compound 715, (2S,5R)-2-(5-(2-amino-1-hydroxyethyl)-1,3,4-oxadiazol-2-yl)-7-oxo-1,6-diazabicyclo[3.2.1]octan-6-yl hydrogen sulfate] the entry was “more active than Avibactam”; with `NCCNCCc1nnc([C@@H]2CC[C@@H]3CN2C(=O)N3OS(=O)(=O)O)o1` [Compound 716, (2S,5R)-2-(5-(2-((2-aminoethyl)amino)ethyl)-1,3,4-oxadiazol-2-yl)-7-oxo-1,6-diazabicyclo[3.2.1]octan-6-yl hydrogen sulfate], “more active than Avibactam”.
As to `NCC(N)c1nnc([C@@H]2CC[C@@H]3CN2C(=O)N3OS(=O)(=O)O)o1` (stereo partly drawn) [Compound 717, (2S,5R)-2-(5-(1,2-diaminoethyl)-1,3,4-oxadiazol-2-yl)-7-oxo-1,6-diazabicyclo[3.2.1]octan-6-yl hydrogen sulfate], the “activity … compared with Avibactam” value is “more active than Avibactam”.
The result for `O=C1N2C[C@@H](CC[C@H]2c2nnc(C3CCNCC3)s2)N1OS(=O)(=O)O` [Compound 719, (2S,5R)-7-oxo-2-(5-(piperidin-4-yl)-1,3,4-thiadiazol-2-yl)-1,6-diazabicyclo[3.2.1]octan-6-yl hydrogen sulfate] reads “more active than Avibactam”; that for `O=C1N2C[C@@H](CC[C@H]2c2nnc(CC3CNC3)o2)N1OS(=O)(=O)O` [Compound 725, (2S,5R)-2-(5-(azetidin-3-ylmethyl)-1,3,4-oxadiazol-2-yl)-7-oxo-1,6-diazabicyclo[3.2.1]octan-6-yl hydrogen sulfate], “more active than Avibactam”.
With `NCC(O)Cc1nnc([C@@H]2CC[C@@H]3CN2C(=O)N3OS(=O)(=O)O)o1` (stereo partly drawn) [Compound 733, (2S,5R)-2-(5-(3-amino-2-hydroxypropyl)-1,3,4-oxadiazol-2-yl)-7-oxo-1,6-diazabicyclo[3.2.1]octan-6-yl hydrogen sulfate] the entry was “more active than Avibactam”; with `N=C(N)N[C@H]1C[C@H](c2nnc([C@@H]3CC[C@@H]4CN3C(=O)N4OS(=O)(=O)O)o2)C1` [Compound 748, (2S,5R)-2-(5-((1r,3S)-3-guanidinocyclobutyl)-1,3,4-oxadiazol-2-yl)-7-oxo-1,6-diazabicyclo[3.2.1]octan-6-yl hydrogen sulfate], “more active than Avibactam”; with `N[C@H]1C[C@H](NCc2nnc([C@@H]3CC[C@@H]4CN3C(=O)N4OS(=O)(=O)O)o2)C1` [Compound 757, (2S,5R)-2-(5-((((1r,3S)-3-aminocyclobutyl)amino)methyl)-1,3,4-oxadiazol-2-yl)-7-oxo-1,6-diazabicyclo[3.2.1]octan-6-yl hydrogen sulfate], “more active than Avibactam”.
As to `O=C1N2C[C@@H](CC[C@H]2c2nnc(CNC3CCNCC3)o2)N1OS(=O)(=O)O` [Compound 769, (2S,5R)-7-oxo-2-(5-((piperidin-4-ylamino)methyl)-1,3,4-oxadiazol-2-yl)-1,6-diazabicyclo[3.2.1]octan-6-yl hydrogen sulfate], the “activity … compared with Avibactam” value is reported as “more active than Avibactam”.
For the compound `NC1CCN(c2nnc([C@@H]3CC[C@@H]4CN3C(=O)N4OS(=O)(=O)O)o2)CC1` [Compound 773, (2S,5R)-2-(5-(4-aminopiperidin-1-yl)-1,3,4-oxadiazol-2-yl)-7-oxo-1,6-diazabicyclo[3.2.1]octan-6-yl hydrogen sulfate], the “activity … compared with Avibactam” value is reported as “more active than Avibactam”.
With `O=C1N2C[C@@H](CC[C@H]2c2nnc([C@@H]3CNCCN3)o2)N1OS(=O)(=O)O` [Compound 778, (2S,5R)-7-oxo-2-(5((S)-piperazin-2-yl)-1,3,4-oxadiazol-2-yl)-1,6-diazabicyclo[3.2.1]octan-6-yl hydrogen sulfate] the entry was “more active than Avibactam”; with `N[C@H]1CC[C@@H](c2nnc([C@@H]3CC[C@@H]4CN3C(=O)N4OS(=O)(=O)O)o2)CC1` [Compound 780, (2S,5R)-2-(5-((1s,4R)-4-aminocyclohexyl)-1,3,4-oxadiazol-2-yl)-7-oxo-1,6-diazabicyclo[3.2.1]octan-6-yl hydrogen sulfate], “more active than Avibactam”.
With `N[C@H]1CC[C@H](c2nnc([C@@H]3CC[C@@H]4CN3C(=O)N4OS(=O)(=O)O)o2)CC1` [Compound 781, (2S,5R)-2-(5-((1r,4S)-4-aminocyclohexyl)-1,3,4-oxadiazol-2-yl)-7-oxo-1,6-diazabicyclo[3.2.1]octan-6-yl hydrogen sulfate] the entry was “more active than Avibactam”.
With `O=C1N2C[C@@H](CC[C@H]2c2nnc(CCCN3CCNCC3)o2)N1OS(=O)(=O)O` [Compound 792, (2S,5R)-7-oxo-2-(5-(3-(piperazin-1-yl)propyl)-1,3,4-oxadiazol-2-yl)-1,6-diazabicyclo[3.2.1]octan-6-yl hydrogen sulfate] the entry was “more active than Avibactam”; with `O=C1N2C[C@@H](CC[C@H]2c2nnc(N3CCNCC3)s2)N1OS(=O)(=O)O` [Compound 797, (2S,5R)-7-oxo-2-(5-(piperazin-1-yl)-1,3,4-thiadiazol-2-yl)-1,6-diazabicyclo[3.2.1]octan-6-yl hydrogen sulfate], “more active than Avibactam”.

These data come from patent US8962843B2, “1,3,4-oxadiazole and 1,3,4-thiadiazole beta-lactamase inhibitors” (priority 2012, dated 2015).
